Data: PMC12090182, “Repurposing of the RIPK1-Selective Benzo[1,4]oxazepin-4-one Scaffold for the Development of a Type III LIMK1/2 Inhibitor” (ACS Chemical Biology, 2025)
Where “and” joins values, the source holds several entries; their conditions need not be identical. Identical values can stand only once. Like-named read-outs stand apart in the source and are kept apart here.

Columns and labels:
[1] = test system: cofilin phosphorylation (LIMK1/2 substrate); experiment: Western blot of cofilin phosphorylation in LN-229 cells; assay type: cell-based, human; conditions: 6 h
Experimental: LN-229, a human glioblastoma cell line, was cultured until passage 17 in Dulbecco’s modified Eagle’s medium (DMEM) with GlutaMAX, 10% fetal bovine serum (FBS), and 1% penicillin/streptomycin. Cells were maintained in an incubator with 5% CO2 at 37 °C. For the treatment, 3 × 10^5 cells were plated and treated with the tested compounds at the indicated concentrations and DMSO as the control for 6 h. The cells were then lysed using RIPA buffer (50 mM Tris HCl pH 7.4, 150 mM NaCl, 1% Triton X-100, 1% NaDOC, 0.1% SDS, and 1 mM EDTA), freshly supplemented with protease and phosphatase inhibitor cocktails (Sigma-Aldrich, Darmstadt, Germany). After a 1 h incubation on ice, the lysates were centrifuged for 30 min at 250g, and the protein-containing supernatant was collected. The protein concentrations were determined using the protein assay dye reagent concentrate (Bradford, Bio-Rad, Hercules, CA, USA) and prediluted protein assay standard bovine serum albumin (BSA) set (Thermo Fisher Scientific, Darmstadt, Germany). Then, equal amounts of protein were mixed with a Roti-Load 1 dye (Carl Roth, Karlsruhe, Germany) and 4× Laemmli buffer (Bio-Rad, Hercules, CA, USA), denatured at 95 °C, and run on NuPAGE 4–12% bis-Tris gels (Thermo Fisher Scientific, Darmstadt, Germany). Proteins were blotted on methanol-activated PVDF transfer membranes (Thermo Fisher Scientific, Darmstadt, Germany) using the wet transfer method with transfer buffer (Thermo Fisher Scientific, Darmstadt, Germany) and 20% methanol. Subsequently, the membranes were blocked with 5% milk or 3% BSA in 0.1% TBS-T for 1 h at RT and incubated overnight at 4 °C with primary antibodies: GAPDH (catalog no. 2118, Cell Signaling Technology, MA, USA, 1:1000 dilution), LIMK1 (catalog no. 3842, Cell Signaling Technology, 1:1000 dilution), LIMK2 (catalog no. 3845, 1:500 dilution), p-cofilin (catalog no. 3313, Cell Signaling Technology, 1:1000 dilution), cofilin (catalog no. 5175, Cell Signaling Technology, 1:1000 dilution). […]

CSNK2A2 = CSNK2A2 (Homo sapiens, UniProt P19784); experiment: DSF selectivity screening; assay type: binding; conditions: 10 μM compound
CSNK2A2, sequence (P19784 1-334): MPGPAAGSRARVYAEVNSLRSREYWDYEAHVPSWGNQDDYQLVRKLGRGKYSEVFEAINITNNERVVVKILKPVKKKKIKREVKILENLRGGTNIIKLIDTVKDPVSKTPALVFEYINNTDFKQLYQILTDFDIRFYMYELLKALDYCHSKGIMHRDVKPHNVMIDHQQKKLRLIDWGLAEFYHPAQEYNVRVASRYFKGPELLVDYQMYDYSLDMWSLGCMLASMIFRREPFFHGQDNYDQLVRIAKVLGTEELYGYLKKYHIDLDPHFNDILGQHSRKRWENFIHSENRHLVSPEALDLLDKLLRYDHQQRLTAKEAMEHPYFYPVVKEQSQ
Experimental: The assay was performed as previously described.[29],[35] Briefly, recombinant protein kinase domains at a concentration of 2 μM were mixed with a 10 μM compound in a buffer containing 20 mM HEPES, pH 7.5, and 500 mM NaCl. SYPRO Orange (5000×, Invitrogen) was added as a fluorescence probe (1 μL per mL). Subsequently, temperature-dependent protein unfolding profiles were measured using a QuantStudio 5 real-time PCR machine (Thermo Fisher). Excitation and emission filters were set to 465 and 590 nm, respectively. The temperature was raised with a step rate of 3 °C per minute. Data points were analyzed with internal software (Thermal Shift Software version 1.4, Thermo Fisher) using the Boltzmann equation to determine the inflection point of the transition curve (Table S4).

RIPK1 = target: T1, RIPK1 (Homo sapiens, UniProt Q13546); experiment: NanoBRET cellular target engagement; assay type: cell-based; conditions: RIPK1, HEK293T cells
T1 construct: full-length LIMK1/2, RIPK1, BTK, and LRRK2 cloned in a frame in a NanoLuc-vector (Promega); host or cells: HEK293T
T1 sequence (Q13546 1-671): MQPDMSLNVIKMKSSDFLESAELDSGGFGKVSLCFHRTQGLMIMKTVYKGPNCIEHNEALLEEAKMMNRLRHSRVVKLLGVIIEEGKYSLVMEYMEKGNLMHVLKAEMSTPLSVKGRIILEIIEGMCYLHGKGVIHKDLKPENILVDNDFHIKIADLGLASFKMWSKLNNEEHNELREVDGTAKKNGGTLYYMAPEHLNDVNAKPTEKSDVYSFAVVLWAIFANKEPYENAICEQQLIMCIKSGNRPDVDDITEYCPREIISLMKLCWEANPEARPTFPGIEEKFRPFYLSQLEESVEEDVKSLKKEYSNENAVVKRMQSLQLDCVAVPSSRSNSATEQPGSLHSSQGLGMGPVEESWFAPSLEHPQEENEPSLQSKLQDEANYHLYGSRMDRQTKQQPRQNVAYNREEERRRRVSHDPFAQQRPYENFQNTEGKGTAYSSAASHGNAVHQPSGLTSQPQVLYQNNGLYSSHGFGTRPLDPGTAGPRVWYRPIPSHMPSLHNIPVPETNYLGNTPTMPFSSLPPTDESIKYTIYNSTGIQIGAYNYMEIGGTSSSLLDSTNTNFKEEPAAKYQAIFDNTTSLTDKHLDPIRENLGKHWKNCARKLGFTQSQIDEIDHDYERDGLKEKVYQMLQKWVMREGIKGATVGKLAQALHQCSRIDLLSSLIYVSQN
Experimental: The assay was performed as described previously.[31],[32] In brief, full-length LIMK1/2, RIPK1, BTK, and LRRK2 cloned in a frame in a NanoLuc-vector (Promega) were transfected into HEK293T cells (ATCC CRL-1573) using FuGENE HD (Promega, E2312), and proteins were allowed to express for 20 h. The serially diluted inhibitor and NanoBRET Kinase Tracer (Promega) used at the previously determined Tracer KD,app (Table S1) were pipetted into white 384-well plates (Greiner 781 207) using an ECHO 550 acoustic dispenser (Labcyte). The corresponding transfected cells were added and reseeded at a density of 2 × 10^5 cells/mL after trypsinization and resuspension in Opti-MEM without phenol red (Life Technologies). The system was allowed to equilibrate for 2 h at 37 °C and 5% CO2 prior to BRET measurements. To measure BRET, a NanoBRET Nano-Glo substrate and an extracellular NanoLuc inhibitor (Promega, N2160) were added as per the manufacturer's protocol, and filtered luminescence was measured on a PHERAstar plate reader (BMG Labtech) equipped with a luminescence filter pair (a 450 nm BP filter (donor) and a 610 nm LP filter (acceptor)). Competitive displacement data were then plotted using GraphPad Prism 10 software using a normalized three-parameter curve fit with the following equation: Y = 100/( [drawing 1] ).

| Structure (SMILES) | cofilin phosphorylation (Western blot) ([1]; 100 nM) | cofilin phosphorylation (Western blot) ([1]; 1 μM and higher concentrations) | ΔTm at 10 µM (CSNK2A2) [°C] | EC50 (RIPK1; read-out: EC50 (NanoBRET)) | EC50 (RIPK1; read-out: EC50 (NanoBRET), Figure 4C) [nM] | cofilin phosphorylation (Western blot) ([1]; 5 μM) |
| --- | --- | --- | --- | --- | --- | --- |
| CN1C(=O)[C@@H](N2CCc3c(nn(Cc4ccccc4)c3C(N)=O)C2=O)COc2cc(Cl)ccc21 [Compound 10, (S)-2-benzyl-6-(8-chloro-5-methyl-4-oxo-2,3,4,5-tetrahydrobenzo[b][1,4]oxazepin-3-yl)-7-oxo-4,5,6,7-tetrahydro-2H-pyrazolo[3,4-c]pyridine-3-carboxamide] | weaker levels of phosphorylation | almost completely abrogated | 2.3 | 6.3 nM and 7.8 nM | 7.85 | – |
| CN1C(=O)[C@@H](N2CCc3c(C(N)=O)nn(Cc4ccccc4)c3C2=O)COc2ccccc21 [Compound 11] | – | – | 2.2 | 3500 nM | – | no effect |
